Reference: patent US4864023A, “Pyrido(3,2,1-IJ)-1,3,4-benzoxadiazine derivatives” (priority 1988, dated 1989)
In brackets after ≈: the same amount, converted by molar mass. Like-named read-outs stand apart in the source and are kept apart here.

Experiments:
Test in all cases: in vitro antibacterial activity, standard agar dilution method
Assay type in all cases: cell-based
[1] = tested on: Alcaligenes faecalis IFO 13111; details: IFO13111, aerobic, read-out: minimum inhibitory concentration (MIC)
[2] = tested on: Pseudomonas aeruginosa A3; details: aerobic, read-out: minimum inhibitory concentration (MIC)
[3] = tested on: Enterobacter aerogenes NR 2945; details: Klebsiella aerogenes, NR2945, aerobic, read-out: minimum inhibitory concentration (MIC)
[4] = tested on: Citrobacter freundii IFO 12681; details: IFO12681, aerobic, read-out: minimum inhibitory concentration (MIC)
[5] = tested on: Klebsiella pneumoniae FDA PCI 602; details: FDAPCI602, aerobic, read-out: minimum inhibitory concentration (MIC)
[6] = tested on: Proteus rettgeri ATCC 14505; details: Providencia rettgeri, ATCC14505, aerobic, read-out: minimum inhibitory concentration (MIC)
[7] = tested on: Enterobacter cloacae NR 2946; details: NR2946, aerobic, read-out: minimum inhibitory concentration (MIC)
[8] = tested on: Pseudomonas aeruginosa NR 2950; details: NR2950, aerobic, read-out: minimum inhibitory concentration (MIC)
[9] = tested on: Escherichia coli NIHJ JC-2; details: NIHJJC2, aerobic, read-out: minimum inhibitory concentration (MIC)
[10] = tested on: Enterococcus faecalis NR 2943; details: NR2943, aerobic, read-out: minimum inhibitory concentration (MIC)
[11] = tested on: Serratia marcescens IFO 12648; details: IFO12648, aerobic, read-out: minimum inhibitory concentration (MIC)
[12] = tested on: Staphylococcus aureus Smith; details: read-out: minimum inhibitory concentration (MIC)
[13] = tested on: Bordetella bronchiseptica ATCC 4617; details: ATCC4617, aerobic, read-out: minimum inhibitory concentration (MIC)
[14] = tested on: Proteus vulgaris OX19 ATCC 6898; details: ATCC6898, aerobic, read-out: minimum inhibitory concentration (MIC)
[15] = tested on: Salmonella typhimurium IFO 12529; details: Salmonella enterica, aerobic, read-out: minimum inhibitory concentration (MIC)
[16] = tested on: Staphylococcus epidermidis IFO 12993; details: IFO12993, aerobic, read-out: minimum inhibitory concentration (MIC)
[17] = tested on: Bacillus subtilis PCI 219; details: PCI219, aerobic, read-out: minimum inhibitory concentration (MIC)
[18] = tested on: Staphylococcus aureus FDA 209P JC-1; details: FDA209P, read-out: minimum inhibitory concentration (MIC)
Escherichia coli NR 2630 = details: NR2630; Escherichia coli NR 2630; aerobic; agar dilution; read-out: minimum inhibitory concentration (MIC)
[19] = tested on: Staphylococcus aureus NR 2855; details: NR2855; Staphylococcus aureus NR 2855; aerobic; agar dilution; read-out: minimum inhibitory concentration (MIC)
[20] = tested on: Staphylococcus epidermidis NR 2942; details: NR2942, aerobic, read-out: minimum inhibitory concentration (MIC)
[21] = tested on: Pseudomonas stutzeri IFO 12695; details: Stutzerimonas stutzeri, IFO12695, aerobic, read-out: minimum inhibitory concentration (MIC)
[22] = Staphylococcus aureus Smith, aerobic, agar dilution
[23] = Staphylococcus aureus FDA 209P JC-1, aerobic, agar dilution

Row | Structure (SMILES) | MIC [1] [µg/mL] | MIC [2] [µg/mL] | MIC [3] [µg/mL] | MIC [4] [µg/mL] | MIC [5] [µg/mL] | MIC [6] [µg/mL] | MIC [7] [µg/mL] | MIC [8] [µg/mL] | MIC [9] [µg/mL] | MIC [10] [µg/mL] | MIC [11] [µg/mL] | MIC [13] [µg/mL] | MIC [14] [µg/mL] | MIC [15] [µg/mL] | MIC [16] [µg/mL] | MIC [17] [µg/mL] | MIC (Escherichia coli NR 2630) [µg/mL] | MIC [19] [µg/mL] | MIC [20] [µg/mL] | MIC [21] [µg/mL] | other results
1 | CN1COc2c(N3CCC(CN)C3)c(F)cc3c(=O)c(C(=O)O)cn1c23 (centres unmarked) [Example 54, 10-[3-(aminomethyl)-1-pyrrolidinyl]-9-fluoro-3-methyl-7-oxo-2,3-dihydro-7H-pyrido[3,2,1-ij]-1,3,4-benzoxadiazine-6-carboxylic acid] | 6.25 (≈ 17.2 µM) | 0.2 (≈ 0.552 µM) | 0.025 (≈ 0.069 µM) | 0.1 (≈ 0.276 µM) | 0.78 (≈ 2.15 µM) | 0.78 (≈ 2.15 µM) | 0.1 (≈ 0.276 µM) | 1.56 (≈ 4.31 µM) | 0.1 (≈ 0.276 µM) | 1.56 (≈ 4.31 µM) | 0.39 (≈ 1.08 µM) | 3.13 (≈ 8.64 µM) | 0.013 (≈ 0.0359 µM) | 0.025 (≈ 0.069 µM) | 0.1 (≈ 0.276 µM) | 0.025 (≈ 0.069 µM) | 0.025 (≈ 0.069 µM) | 0.2 (≈ 0.552 µM) | 0.1 (≈ 0.276 µM) | 0.013 (≈ 0.0359 µM) | MIC [12, 22]: 0.025 µg/mL (≈ 0.069 µM); MIC [18, 23]: 0.013 µg/mL (≈ 0.0359 µM)
2 | CN1COc2c(N3CCC(Cl)C3)c(F)cc3c(=O)c(C(=O)O)cn1c23 (centres unmarked) [Example 59, 10-(3-chloro-1-pyrrolidinyl)-9-fluoro-3-methyl-7-oxo-2,3-dihydro-7H-pyrido[3,2,1-ij]-1,3,4-benzoxadiazine-6-carboxylic acid] | 6.25 (≈ 17 µM) | 3.13 (≈ 8.51 µM) | 0.78 (≈ 2.12 µM) | 1.56 (≈ 4.24 µM) | 3.13 (≈ 8.51 µM) | 3.13 (≈ 8.51 µM) | 0.78 (≈ 2.12 µM) | 25 (≈ 68 µM) | 1.56 (≈ 4.24 µM) | 3.13 (≈ 8.51 µM) | 3.13 (≈ 8.51 µM) | 3.13 (≈ 8.51 µM) | 0.2 (≈ 0.544 µM) | 1.56 (≈ 4.24 µM) | 0.39 (≈ 1.06 µM) | 0.0065 (≈ 0.0177 µM) | 0.39 (≈ 1.06 µM) | 0.1 (≈ 0.272 µM) | 0.2 (≈ 0.544 µM) | 1.56 (≈ 4.24 µM) | MIC [12, 22]: 0.05 µg/mL (≈ 0.136 µM); MIC ([18]; Staphylococcus aureus): 0.39 µg/mL (≈ 1.06 µM)
3 | CN1COc2c(N3CCC(N)C3)c(F)cc3c(=O)c(C(=O)OCOC(=O)C(C)(C)C)cn1c23 (centres unmarked) [Example 63, pivaloyloxymethyl 10-(3-amino-1-pyrrolidinyl)-9-fluoro-3-methyl-7-oxo-2,3-dihydro-7H-pyrido[3,2,1-ij]-1,3,4-benzoxadiazine-6-carboxylate] | 100 (≈ 216 µM) | 3.13 (≈ 6.77 µM) | 0.39 (≈ 0.843 µM) | 0.78 (≈ 1.69 µM) | 6.25 (≈ 13.5 µM) | 6.25 (≈ 13.5 µM) | 1.56 (≈ 3.37 µM) | 25 (≈ 54.1 µM) | 1.56 (≈ 3.37 µM) | 25 (≈ 54.1 µM) | 3.13 (≈ 6.77 µM) | 50 (≈ 108 µM) | 0.39 (≈ 0.843 µM) | 0.78 (≈ 1.69 µM) | 1.56 (≈ 3.37 µM) | 0.78 (≈ 1.69 µM) | 0.78 (≈ 1.69 µM) | 3.13 (≈ 6.77 µM) | 0.78 (≈ 1.69 µM) | 0.39 (≈ 0.843 µM) | MIC ([12]; Staphylococcus aureus): 0.39 µg/mL (≈ 0.843 µM); MIC [18, 23]: 0.78 µg/mL (≈ 1.69 µM)

Now from value to molecule, other results behind:

Row | MIC [1] [µg/mL] | MIC [2] [µg/mL] | MIC [3] [µg/mL] | MIC [4] [µg/mL] | MIC [5] [µg/mL] | MIC [6] [µg/mL] | MIC [7] [µg/mL] | MIC [8] [µg/mL] | MIC [9] [µg/mL] | MIC [10] [µg/mL] | MIC [11] [µg/mL] | MIC [13] [µg/mL] | MIC [14] [µg/mL] | MIC [15] [µg/mL] | MIC [16] [µg/mL] | MIC [17] [µg/mL] | MIC (Escherichia coli NR 2630) [µg/mL] | MIC [19] [µg/mL] | MIC [20] [µg/mL] | MIC [21] [µg/mL] | Structure (SMILES) | other results
4 | 3.13 (≈ 6.9 µM) | 0.78 (≈ 1.72 µM) | 0.1 (≈ 0.221 µM) | 0.1 (≈ 0.221 µM) | 0.39 (≈ 0.86 µM) | 1.56 (≈ 3.44 µM) | 0.2 (≈ 0.441 µM) | 12.5 (≈ 27.6 µM) | 0.2 (≈ 0.441 µM) | 1.56 (≈ 3.44 µM) | 0.78 (≈ 1.72 µM) | 0.78 (≈ 1.72 µM) | 0.1 (≈ 0.221 µM) | 0.1 (≈ 0.221 µM) | 0.1 (≈ 0.221 µM) | 0.025 (≈ 0.0551 µM) | 0.05 (≈ 0.11 µM) | 0.1 (≈ 0.221 µM) | 0.1 (≈ 0.221 µM) | 0.2 (≈ 0.441 µM) | CN1COc2c(N3CCN(Cc4ccc(N)cc4)CC3)c(F)cc3c(=O)c(C(=O)O)cn1c23 [Example 53, 10-[4-(4-aminobenzyl)-1-piperazinyl]-9-fluoro-3-methyl-7-oxo-2,3-dihydro-7H-pyrido[3,2,1-ij]-1,3,4-benzoxadiazine-6-carboxylic acid] | MIC [12, 22]: 0.05 µg/mL (≈ 0.11 µM); MIC [18, 23]: 0.1 µg/mL (≈ 0.221 µM)
5 | 3.13 (≈ 7.94 µM) | 0.78 (≈ 1.98 µM) | 0.1 (≈ 0.254 µM) | 0.1 (≈ 0.254 µM) | 0.39 (≈ 0.989 µM) | 0.78 (≈ 1.98 µM) | 0.2 (≈ 0.507 µM) | 6.25 (≈ 15.8 µM) | 0.2 (≈ 0.507 µM) | 12.5 (≈ 31.7 µM) | 0.2 (≈ 0.507 µM) | 0.78 (≈ 1.98 µM) | 0.05 (≈ 0.127 µM) | 0.1 (≈ 0.254 µM) | 1.56 (≈ 3.96 µM) | 0.2 (≈ 0.507 µM) | 0.1 (≈ 0.254 µM) | 1.56 (≈ 3.96 µM) | 1.56 (≈ 3.96 µM) | 0.2 (≈ 0.507 µM) | CN1CCN(c2c(F)cc3c(=O)c(C(=O)O)cn4c3c2OCN4CCF)CC1 [Example 69, 9-fluoro-3-(2-fluoroethyl)-10-(4-methyl-1-piperazinyl)-7-oxo-2,3-dihydro-7H-pyrido[3,2,1-ij]-1,3,4-benzoxadiazine-6-carboxylic acid] | MIC [12, 22]: 0.78 µg/mL (≈ 1.98 µM); MIC [18, 23]: 1.56 µg/mL (≈ 3.96 µM)
